Experimental data published in article PMC9295539 (Antimicrobial Agents and Chemotherapy, 2022).
“Also recorded” adds a separate entry of the source. Where two headings read alike, the source gives them in different places.

Legend:
[1] = parameters: method as in doi:10.1016/j.jtho.2016.11.1668; conditions: adults; >150 mg daily oral doses over 7 days; cited from earlier work
[2] = CRL-8155 cytotoxicity, resazurin-based viability assay; format: cell-based; conditions: human, CRL-8155 lymphocytic cells; read-out: CC50 against CRL-8155 cells
Description: (§1) Experimental details for the assays were described previously ([50]). […] Assays were performed as previously reported ([51]).

[3] = tested on: Giardia lamblia GS clone H7; assay: G. lamblia GS clone H7 trophozoite growth, ATP-based bioluminescence assay (BacTiter-Glo), 1,536-well; format: cell-based; conditions: Giardia duodenalis
Description: (§2) Compounds were screened at 5 μM with metronidazole (40 μM) as an inhibitor control and dimethyl sulfoxide (DMSO) as a neutral control. […] These primary hits were immediately assayed for reconfirmation and mammalian cytotoxicity against HEK293T cells in an 8-point dose-response format.
The primary screen was conducted at 5 μM. […] All source plates were 384-well acoustic, transfer-compatible plates with compounds prediluted in DMSO at either 2 mM or 10 mM. […] Primary screening was done with a single replicate, whereas dose-response testing was carried out in triplicate.
To prevent attachment to the bottle and tubing of the dispenser cassette, the bottle containing the culture was kept on ice throughout the dispensing process. […] The bags were heat sealed and the anaerobic generator was activated according to the manufacturer’s instructions. […] Luminescence was read on a ViewLux uHTS microplate imager (PerkinElmer) with medium-sensitivity luminescence at 30 s of exposure.
(§3) Relative luminescence unit (RLU) values were analyzed in Genedata Screener (v13.0-Standard). RLU values were normalized to neutral controls minus inhibitors (DMSO-treated wells minus metronidazole-treated wells). For single-point primary assay plates, an additional run-wise median correction was applied to reduce screen artifacts, whereas no corrections were applied to triplicate dose-response plates. For the mammalian cytotoxicity assays, RLU values were uploaded into Genedata Screener, and the data were normalized to those for DMSO-treated wells minus puromycin-treated wells.

[4] = Clinical evaluation of overall health of mice in PK and efficacy studies; conditions: all mice used for in vivo PK and efficacy studies
[5] = tested on: metronidazole-resistant 713-M3 strain; assay: Metronidazole-resistant G. lamblia 713-M3 cell growth inhibition assay; format: cell-based; conditions: Giardia duodenalis, read-out: EC50 against G. lamblia strain 713-M3
[6] = tested on: G. lamblia WB6 (assemblage A); assay: G. lamblia WB6 cell growth inhibition assay; format: cell-based; conditions: Giardia duodenalis; assemblage A; read-out: EC50 against G. lamblia strain WB6
G. lamblia CBG99 = conditions: mice
Description: The method relies on a stable constitutive reporter, CBG99, that correlates with total parasite load.
In vitro reconfirmation and expanded tests against EGFR-TKIs using the G. lamblia CBG99 strain were performed as previously described ([11]). […] The PK studies were performed in groups of 3 mice per compound. […] All animal experiments were approved by the Institutional Animal Care and Use Committees at the University of Washington.

[7] = Allometric scaling of efficacious mouse doses to human-equivalent dose; conditions: 150 mg human dose (2.6 to 1.9 mg/kg) versus predicted human efficacious dose
Description: Its chemical synthesis and safety profiles and a partial analysis of its pharmacokinetic properties have been described previously ([18], [43]). […] Given that the average adult weight worldwide ranges from 57.7 kg in Asia to 80.7 kg in North America ([46]), a 150 mg dose equates to 2.6 to 1.9 mg/kg. […]. This leaves a possible safety window of 4.6 to 13 times the efficacious dose, depending on the dose needed and the weight of the adult patient. Since the equivalent human efficacious dose (based on the murine efficacy data) is below the clinical trial threshold and the drug may not necessitate more than 7 daily doses, it could be speculated that all previously obtained good laboratory practices (GLP) toxicological data associated with the Phase I clinical trials remain relevant and may not need to be repeated. […] Reduced cost of development should have a direct impact on the cost of goods for the target population. This is certainly true for G. lamblia.

[8] = HepG2 cytotoxicity, resazurin-based viability assay; format: cell-based; conditions: human, HepG2 cells; read-out: CC50 against HepG2 cells
Description: as §1

[9] = HEK293T cytotoxicity counterscreen, luminescent ATP viability assay; conditions: human, HEK293T cells
Description: as §2, §1, §3

[10] = Mouse pharmacokinetics, oral gavage, plasma LC-MS/MS; format: in vivo; conditions: for half-life: read-out: average half-life (t1/2); for plasma level: 1 mg/kg QD
[11] = mouse, single oral dose 5 mg/kg
[12] = mouse, single oral dose 20 mg/kg
[13] = mouse, single oral dose 50 mg/kg

SMILES: C=CC(=O)N[C@@H]1CN(c2nc(Nc3cn(C)nc3OC)c3ncn(C)c3n2)C[C@H]1F [Mavelertinib, N-((3R,4R)-4-fluoro-1–(6-((3-methoxy-1-methyl-1H-pyrazol-4-yl)amino)-9-methyl-9H-purin-2-yl)pyrrolidine-3-yl)acrylamide]
- most common adverse events [1]: diarrhea and skin toxicities
- CC50 [2]: > 80000 nM
- EC50 ([3]; 48 h, 8-point dose response, triplicate, read-out: 48-h Giardia GS clone H7 EC50): 2340 ± 80 nM
- EC50 ([3]; Table 2, assemblage B, read-out: EC50 against G. lamblia strain GS clone 7): 2340 ± 80 nM
- observable toxicity [4]: no observable mavelertinib-induced toxicology potentials
- EC50 [5]: 70 ± 20 nM
- EC50 [6]: 270 ± 170 nM
- clearance of infection (luminescence signal) (G. lamblia CBG99; 2.5 mg/kg QD for 2 days): one of four mice remained infected
- clearance of infection (luminescence signal) (G. lamblia CBG99; 5 mg/kg QD for 2 days, 5 mg/kg): cleared the infection below the background signal
- clearance of infection (luminescence signal) (G. lamblia CBG99; 5 mg/kg QD for 2 days, listed as mavelertinib, 5 mg/kg): absence of luminescence signal
- clearance of infection (luminescence signal) (G. lamblia CBG99; 20 mg/kg QD for 2 days, 20 mg/kg): cleared the infection below the background signal
- clearance of infection (luminescence signal) (G. lamblia CBG99; 20 mg/kg QD for 2 days, listed as mavelertinib, 20 mg/kg): absence of luminescence signal
- clearance of infection (luminescence signal) (G. lamblia CBG99; 50 mg/kg QD for 1 day, dose-response experiment, 50 mg/kg): cleared the infection below the background signal
- clearance of infection (luminescence signal) (G. lamblia CBG99; 50 mg/kg QD for 1 day, dose-response experiment, listed as mavelertinib, 50 mg/kg): absence of luminescence signal
- clearance of infection (G. lamblia CBG99; 50 mg/kg QD for 3 days, data not shown): appeared to clear the infection
- clearance of infection (G. lamblia CBG99; 50 mg/kg QD, 1- and 2-day dosing, remained clear a week after dosing): all treated mice were cleared of infection
- parasite rebound after treatment (G. lamblia CBG99; about 1 week after the last therapeutic dose): parasites did not rebound
- possible safety window [7]: 4.6 to 13 times the efficacious dose
- CC50 [8]: > 80000 nM
- CC50 at 72 h [9]: > 25000 nM
- half-life ([10]; in vivo, mouse, single oral dose 5 mg/kg): 3.99 h
- plasma trough levels ([10]; infected mice, all treatment groups, days 6 and 7 postinfection (24 h and 48 h after the first dose)): below the limit of quantitation
- plasma level ([10]; mouse, 0.5 h postdose, one mouse): barely detectable
- plasma level ([10]; mouse, all time points after 0.5 h): below the limit of detection
- plasma level ([10]; mouse, all time points sampled (Fig. 4 legend)): barely detectable
- time at which Cmax was observed (Tmax) ([10]; mouse, oral, in all cases (all doses)): 0.5 h
- plasma concentration at 24 h postdose ([10]; mouse, single dose, all dosage groups): cleared from plasma; also recorded: below the detection limit
- area under the curve (AUC) [10, 11]: 89 µmol·min/L
- clearance [10, 11]: 0.015 L/min
- area under the curve (AUC) [10, 12]: 300 µmol·min/L
- clearance [10, 12]: 0.004 L/min
- area under the curve (AUC) [10, 13]: 812 µmol·min/L
- clearance [10, 13]: 0.0016 L/min
- Cmax ([10]; plasma, mouse, single oral dose 5 mg/kg, read-out: maximum plasma concentration (Cmax)): 0.63 µM
- half-life ([10]; plasma, mouse, single oral dose 20 mg/kg): 2.91 h
- Cmax ([10]; plasma, mouse, single oral dose 20 mg/kg, read-out: maximum plasma concentration (Cmax)): 3.5 µM
- half-life ([10]; plasma, mouse, single oral dose 50 mg/kg): 2.09 h
- Cmax ([10]; plasma, mouse, single oral dose 50 mg/kg, read-out: average maximum plasma concentration (Cmax)): 9.3 µM
